Measured values published in patent US20110223256A1, “Method For Stabilizing Flavonoid Aqueous Dispersion” (STOKELY-VAN CAMP, INC., priority 2010, published 2011).

test: Shelf life of aqueous dispersion in 20 oz beverage; format: physicochemical; conditions: aqueous dispersion in 20 oz beverage, 22-25° C.; stable = no settling, phase separation or precipitates
Method: As set forth in the examples below, stable aqueous dispersions containing bioactive compounds were prepared by using the solubilization and stabilization process. The resulting dispersions were fine, homogeneous, and stable. There were no settling, phase separation, and precipitates on the side of the bottle (See FIG. 3 and Table 1).

SMILES | Shelf Life (22-25° C.)
COc1ccc2oc(-c3ccc(OC)c(OC)c3)c(OC)c(=O)c2c1 [Tetramethoxyflavone, 3,6,3′,4′-Tetramethoxyflavone] | Stable after at least 3 months
Oc1ccc(C=Cc2cc(O)cc(O)c2)cc1 [Resveratrol] | Stable after at least 3 months
C[C@@H]1CC[C@H]2[C@@H](C)C(=O)O[C@@H]3O[C@@]4(C)CC[C@@H]1[C@]32OO4 [Artemisinin, reference compound] | Stable after at least 3 months
COc1cc(/C=C/C(=O)CC(=O)/C=C/c2ccc(O)c(OC)c2)ccc1O [Curcumin] | Stable after at least 3 months
O=C1C[C@@H](c2ccc(O)cc2)Oc2cc(O)cc(O)c21 [Naringenin] | Stable after at least 3 months
O=c1c(O)c(-c2ccc(O)c(O)c2)oc2cc(O)cc(O)c12 [Quercetin, 2-(3,4-dihydroxyphenyl)-3,5,7-trihydroxy-4H-chromen-4-one] | Stable after at least 6 months
COc1ccc([C@@H]2CC(=O)c3c(O)cc(O[C@@H]4O[C@H](CO[C@@H]5O[C@@H](C)[C@H](O)[C@@H](O)[C@H]5O)[C@@H](O)[C@H](O)[C@H]4O)cc3O2)cc1O [Hesperedin] | Stable after at least 3 months

same assay, conditions: depending on the dispersion stabilizer(s) used

SMILES | Length of time quercetin stays dispersed in a beverage
O=c1c(O)c(-c2ccc(O)c(O)c2)oc2cc(O)cc(O)c12 [Quercetin, 2-(3,4-dihydroxyphenyl)-3,5,7-trihydroxy-4H-chromen-4-one] | about 12 hours to about six months or longer
